The source of these data is patent US10059721B2, “Substituted thieno[3,2-b]pyrazines for inhibiting cancer cell proliferation and inducing cancer cell apoptosis” (DONGGUK UNIVERSITY INDUSTRY-ACADEMIC COOPERATION FOUNDATION, priority 2014, dated 2018).

SMILES strings stand for the structures.

Holding throughout (assay type): cell-based
For test [1], the system named is MDA-MB-231 (breast cancer) cell line. As to the kind of experiment: Cell growth inhibition experiment (SRB), MDA-MB-231. The following applies: Homo sapiens, incubated for 96 hours, read-out: IC50 (μM) of cancer cell lines MDA-MB-231. The procedure: (§1) The cell lines below were used in order to confirm the efficacy of the compounds synthesized in Examples 1 to 27. Human PANC-1 (pancreatic cancer) and MDA-MB-231 (breast cancer) cell lines were obtained from American Type Culture Collection (ATCC; Manassas, Va.); and HN31 (head and neck cancer) and UMRC2 (kidney cancer) cell lines were secured from the United States National Institutes of Health (Bethesda, Md.). The MDA-MB-231, UMRC2, HN31, and PANC-1 cell lines were cultured in Dulbecco modified Eagle medium (DMEM) containing FBS (10%), HEPES (10 mM), penicillin (100 U/mL), and streptomycin (100 μg/mL). All cell lines were cultured in an incubator (37° C., 5% CO2).
(§2) The 4-(aryl)-N-(2-alkoxythieno[3,2-b]pyrazin-3-yl)-piperazin-1-carboxamide derivative compounds synthesized according to Examples 1 to 27 of the present invention were treated with various human tissue-derived cancer cell lines cultured according to Experimental Example 1, and thus the inhibitory effect of the growth of human cancer cells was confirmed. The cell growth inhibition experiment was conducted using sulforhodamine B (SRB) technique (Skehan et al., J. National Cancer Institute, 1990, 82: 1107-1112). Specifically, each cell line was seeded in a 96-well plate at a density of 2 to 3×10^3 cells/well, cultured overnight, and then treated with the 4-(aryl)-N-(2-alkoxythieno[3,2-b]pyrazin-3-yl)-piperazin-1-carboxamide derivative compounds of the present invention. The experiment was repeated 3 times for each compound. Cells treated with each compound were additionally incubated for 96 hours, fixed with 10% trichloroacetic acid (TCA), and then left at 4° C. for 1 hour. The resultant was washed 3 times with distilled water. Thereafter, each cell was treated with 0.4% sulforhodamine B dissolved in 1% acetic acid, stained for 30 minutes, and then washed 4 times with 1% acetic acid. The resultant was dried in the air. After shaking the resultant in Tris solution (10 mM) for 5 minutes, the absorbance was measured at 530 nm using a Benchmark Plus Microplate reader (Bio-Rad Laboratories, Hercules, Calif.).
(§3) In order to convert the OD530 value to the number of viable cells per each well, the measured OD530 value was compared to the standard OD530-vs.-cell number curve of each cell line. The percent survival was calculated using the following formula: % survival=Nlive cells(test)/Nlive cells(control)×100
(§4) IC50 values were calculated by nonlinear regression analysis.

The subject of test [2] is HT29. In words: Cell growth inhibition experiment (SRB), HT29. The note with it: Homo sapiens, HT-29, incubated for 96 hours, read-out: IC50 (μM) of cancer cell lines HT29. The procedure: as §2, §3, §4
The subject of test [3] is PANC-1 (pancreatic cancer) cell line. In words: Cell growth inhibition experiment (SRB), PANC-1. The note with it: Homo sapiens, incubated for 96 hours, read-out: IC50 (μM) of cancer cell lines PANC-1. On the procedure:
as §1, §2, §3, §4

For test [4], the system named is HEK293. In words: Cell growth inhibition experiment (SRB), HEK293. The following applies: Homo sapiens, incubated for 96 hours, read-out: IC50 (μM) of cancer cell lines HEK293. The procedure:
as §2, §3, §4

Test [5] has as its system SK-OV-3. As to the kind of experiment: Cell growth inhibition experiment (SRB), SK-OV-3. The following applies: Homo sapiens, incubated for 96 hours, read-out: IC50 (μM) of cancer cell lines SK-OV-3. On the procedure: as §2, §3, §4
In test [6] the test system is A549. In words: Cell growth inhibition experiment (SRB), A549. The note with it: Homo sapiens, incubated for 96 hours, read-out: IC50 (μM) of cancer cell lines A549. The procedure:
as §2, §3, §4

Test [7] deals with HN31 (head and neck cancer) cell line. As to the kind of experiment: Cell growth inhibition experiment (SRB), HN31. The note with it: Homo sapiens, incubated for 96 hours, read-out: IC50 (μM) of cancer cell lines HN31. On the procedure: as §1, §2, §3, §4
Test [8] relates to HUVEC. In words: Cell growth inhibition experiment (SRB), HUVEC. The note with it: Homo sapiens, incubated for 96 hours, read-out: IC50 (μM) of cancer cell lines HUVEC. On the procedure: as §2, §3, §4
For test [9], the system named is UMRC2 (kidney cancer) cell line. As to the kind of experiment: Cell growth inhibition experiment (SRB), UMRC2. The following applies: Homo sapiens, incubated for 96 hours, read-out: IC50 (μM) of cancer cell lines UMRC2. The procedure: as §1, §2, §3, §4

Consider `COc1cc(OC)cc(N2CCN(C(=O)Nc3nc4sc(Cl)cc4nc3OC)CC2)c1` [Example 1, N-(6-chloro-2-methoxythieno[3,2-b]pyrazin-3-yl)-4-(3,5-dimethoxyphenyl)piperazin-1-carboxamide], for which the IC50 – broadly, the midpoint of a concentration-inhibition curve – amounted to 0.02 µM in test [1]; 0.31 µM in test [2]; 0.53 µM in test [3]; 0.63 µM in [4]; 0.27 µM in test [5]; 2.13 µM in test [6]. Further, the 50% inhibitory concentration (IC50) in [7] was 0.27 µM; in test [8], 0.12 µM; in [9] it was 0.03 µM.
Take `COc1nc2cc(Cl)sc2nc1NC(=O)N1CCN(c2cc(C)cc(C)c2)CC1` [Example 2, N-(6-chloro-2-methoxythieno[3,2-b]pyrazin-3-yl)-4-(3,5-dimethylphenyl)piperazin-1-carboxamide]: the IC50 in [1] was 0.06 µM; in test [2], 0.62 µM; in test [3], 0.95 µM; in [4] it was 0.93 µM; in test [5] it was 0.82 µM; in test [6], under 2.5 µM. Further, the IC50 in test [7] was determined as 0.99 µM; in test [8], 0.91 µM; in [9], 0.08 µM.
For the compound `COc1nc2cc(Cl)sc2nc1NC(=O)N1CCN(c2cc(F)cc(F)c2)CC1` [Example 3, N-(6-chloro-2-methoxythieno[3,2-b]pyrazin-3-yl)-4-(3,5-difluorophenyl)piperazin-1-carboxamide], the IC50 in test [1] is 0.04 µM; in test [2] it was 0.53 µM; in [3] it was 0.56 µM; in [4], 0.87 µM; in test [5] it was 0.85 µM; in test [6] it was 2.11 µM. Moreover, the values for the IC50 in test [7], in test [8] and in test [9] were 0.71 µM, 0.54 µM and 0.06 µM, respectively.
In the case of `CCOc1nc2cc(Cl)sc2nc1NC(=O)N1CCN(c2cc(OC)cc(OC)c2)CC1` [Example 4, N-(6-chloro-2-ethoxythieno[3,2-b]pyrazin-3-yl)-4-(3,5-dimethoxyphenyl)piperazin-1-carboxamide], the IC50 in [1] was 0.63 µM; in [2], under 2.5 µM; in test [3] it was 1.28 µM; in test [4], under 2.5 µM; in test [5], under 2.5 µM; in test [6], under 2.5 µM. Also, the IC50 came out at 1.54 µM in test [7], 2.25 µM in test [8] and 0.54 µM in test [9].
In the case of `CCOc1nc2cc(Cl)sc2nc1NC(=O)N1CCN(c2cc(C)cc(C)c2)CC1` [Example 5, N-(6-chloro-2-ethoxythieno[3,2-b]pyrazin-3-yl)-4-(3,5-dimethylphenyl)piperazin-1-carboxamide], the IC50 in test [1] was 1.22 µM; in test [2] it was under 2.5 µM; in test [3], 2.32 µM; in test [4], under 2.5 µM; in test [5], under 2.5 µM; in test [6] it was under 2.5 µM. Also, the IC50 in [7] was 2.35 µM; in test [8] it was under 2.5 µM; in [9], 1.72 µM.
Consider `CCOc1nc2cc(Cl)sc2nc1NC(=O)N1CCN(c2cc(F)cc(F)c2)CC1` [Example 6, N-(6-chloro-2-ethoxythieno[3,2-b]pyrazin-3-yl)-4-(3,5-difluorophenyl)piperazin-1-carboxamide], for which the IC50 in test [1] was 1.13 µM; in [2], under 2.5 µM; in test [3], 1.98 µM; in test [4], under 2.5 µM; in [5] it was under 2.5 µM; in [6], under 2.5 µM. Also, the IC50 was 2.1 µM in test [7], under 2.5 µM in [8] and 1.21 µM in test [9].
Consider `COc1cc(OC)cc(N2CCN(C(=O)Nc3nc4sc(Cl)cc4nc3OC(C)C)CC2)c1` [Example 7, N-(6-chloro-2-isopropoxythieno[3,2-b]pyrazin-3-yl)-4-(3,5-dimethoxyphenyl)piperazin-1-carboxamide], for which the 50% inhibitory concentration (IC50) in test [1], in [2], in test [3], in test [4], in test [5] and in [6] was under 2.5 µM in each case. Also, the IC50 in [7], in test [8] and in test [9] was under 2.5 µM in each case.
As for `Cc1cc(C)cc(N2CCN(C(=O)Nc3nc4sc(Cl)cc4nc3OC(C)C)CC2)c1` [Example 8, N-(6-chloro-2-isopropoxythieno[3,2-b]pyrazin-3-yl)-4-(3,5-dimethylphenyl)piperazin-1-carboxamide], the half-maximal inhibitory concentration (IC50) in test [1], in test [2], in [3], in test [4], in test [5] and in test [6] was under 2.5 µM each time. The 50% inhibitory concentration (IC50) in test [7], in test [8] and in [9] was under 2.5 µM throughout.
With `CC(C)Oc1nc2cc(Cl)sc2nc1NC(=O)N1CCN(c2cc(F)cc(F)c2)CC1` [Example 9, N-(6-chloro-2-isopropoxythieno[3,2-b]pyrazin-3-yl)-4-(3,5-difluorophenyl)piperazin-1-carboxamide], the IC50 in [1], in test [2], in test [3], in test [4], in test [5] and in test [6] was under 2.5 µM in each case. Besides, the concentration for half-maximal inhibition (IC50) in test [7], in test [8] and in test [9] was under 2.5 µM throughout.
As to `COc1cc(OC)cc(N2CCN(C(=O)Nc3nc4sccc4nc3OC)CC2)c1` [Example 10, 4-(3,5-dimethoxyphenyl)-N-(2-methoxythieno[3,2-b]pyrazin-3-yl)piperazin-1-carboxamide], the half-inhibitory concentration (IC50) in test [1] came to 0.02 µM; in test [2] it was 0.27 µM; in test [3] it was 0.38 µM; in [4] it was 0.56 µM; in [5], 0.23 µM; in test [6], 1.14 µM. Moreover, the 50% inhibitory concentration (IC50) in test [7] was 0.18 µM; in test [8], 0.06 µM; in test [9], 0.03 µM.
`COc1nc2ccsc2nc1NC(=O)N1CCN(c2cc(C)cc(C)c2)CC1` [Example 11, 4-(3,5-dimethylphenyl)-N-(2-methoxythieno[3,2-b]pyrazin-3-yl)piperazin-1-carboxamide]: the IC50 was 0.07 µM in [1]; 0.31 µM in [2]; 0.24 µM in test [3]; 0.65 µM in test [4]; 0.27 µM in test [5]; 1.31 µM in test [6]. Besides, the values for the IC50 in [7], in test [8] and in test [9] were 0.41 µM, 0.07 µM and 0.07 µM, respectively.
With `COc1nc2ccsc2nc1NC(=O)N1CCN(c2cc(F)cc(F)c2)CC1` [Example 12, 4-(3,5-difluorophenyl)-N-(2-methoxythieno[3,2-b]pyrazin-3-yl)piperazin-1-carboxamide], the IC50 in test [1] amounted to 0.05 µM; in test [2], 0.3 µM; in [3], 0.24 µM; in [4], 0.55 µM; in [5], 0.29 µM; in [6], 1.28 µM. Also, the IC50 in [7] turned out to be 0.33 µM; in test [8], 0.07 µM; in test [9] it was 0.04 µM.
On to `CCOc1nc2ccsc2nc1NC(=O)N1CCN(c2cc(OC)cc(OC)c2)CC1` [Example 13, 4-(3,5-dimethoxyphenyl)-N-(2-ethoxythieno[3,2-b]pyrazin-3-yl)piperazin-1-carboxamide], for which the IC50 was 0.16 µM in [1]; under 2.5 µM in test [2]; 0.65 µM in test [3]; under 2.5 µM in test [4]; under 2.5 µM in [5]; under 2.5 µM in test [6]. The IC50 is 0.72 µM in test [7], under 2.5 µM in test [8] and 0.26 µM in test [9].
